Assay: wn = mass fraction of the nth substance listed
Conditions: 500 kPa, Liquid, Concentric cylinders viscometry

NCCCO [3-amino-1-propanol] + O
viscosity [mPa·s]
Conditions | w1 = 0.1 | w1 = 0.2 | w1 = 0.3 | w1 = 0.4 | w1 = 0.5 | w1 = 0.6 | w1 = 0.7 | w1 = 0.8 | w1 = 0.9 | w1 = 1
298.15 K | 1.27 | 1.84 | 2.95 | 4.76 | 7.58 | 12.17 | 18.56 | 26.23 | 29.26 | 30.43
303.15 K | 1.14 | 1.62 | 2.5 | 3.97 | 6.18 | 9.64 | 14.5 | 20.98 | 22.76 | 23.87
308.15 K | 1.01 | 1.41 | 2.15 | 3.34 | 5.1 | 7.69 | 11.48 | 15.73 | 17.96 | 19.07
313.15 K | 0.89 | 1.25 | 1.82 | 2.82 | 4.23 | 6.25 | 9.21 | 12.52 | 14.36 | 15.27
318.15 K | 0.81 | 1.12 | 1.59 | 2.42 | 3.59 | 5.17 | 7.5 | 10.09 | 11.6 | 12.36
323.15 K | 0.75 | 1.01 | 1.4 | 2.11 | 3.07 | 4.34 | 6.17 | 8.24 | 9.47 | 10.22
328.15 K | 0.72 | 0.92 | 1.24 | 1.86 | 2.65 | 3.69 | 5.14 | 6.81 | 7.78 | 8.54
333.15 K | 0.66 | 0.84 | 1.1 | 1.66 | 2.31 | 3.17 | 4.33 | 5.68 | 6.47 | 7.12
338.15 K | 0.61 | 0.76 | 0.99 | 1.47 | 2.03 | 2.74 | 3.67 | 4.79 | 5.43 | 6.05
343.15 K | 0.58 | 0.73 | 0.9 | 1.32 | 1.81 | 2.39 | 3.15 | 4.08 | 4.61 | 4.84
348.15 K | 0.57 | 0.7 | 0.82 | 1.2 | 1.64 | 2.09 | 2.72 | 3.51 | 3.93 | 4.17
353.15 K | 0.55 | 0.67 | 0.75 | 1.08 | 1.46 | 1.85 | 2.37 | 3.03 | 3.39 | 3.63
358.15 K | 0.41 | 0.54 | 0.69 | 0.99 | 1.32 | 1.68 | 2.09 | 2.7 | 2.93 | 3.19
363.15 K | 0.39 | 0.49 | 0.65 | 0.93 | 1.25 | 1.51 | 1.86 | 2.4 | 2.56 | 2.73
368.15 K | 0.37 | 0.47 | 0.63 | 0.88 | 1.16 | 1.37 | 1.66 | 2.13 | 2.24 | 2.52
373.15 K | 0.35 | 0.44 | 0.59 | 0.82 | 1.05 | 1.26 | 1.49 | 1.91 | 1.98 | 2.25

Source: the NIST ThermoML archive (doi:10.1021/acs.jced.7b01035)
